Experiment in all cases: inhibition of tumour cell growth, NCI panel, 48 h
For test [1], the system named is CCRF-CEM leukemia.
Test [2] concerns DU-145 prostate.
Test [3] has as its system MCF7 breast.
Test [4] concerns MDA-MB-231 breast.
For test [5], the system named is MOLT-4 leukemia.
Test [6] concerns OVCAR-8 ovarian.
For test [7], the system named is RPMI-8226 leukemia.
Test [8] deals with SF-539 CNS.
Test [9] deals with SK-OV-3 ovarian.
Test [10] concerns U251 CNS.

Data on 27 molecules can be found in PubChem BioAssay (NCI).

Several values for one entry are separate records, joined by “and”; a condition that tells them apart may be missing. Equal entries are not always repeated.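 Results reflect a 48-hour exposure of cells in 96-well plates to compound at five concentrations. TGI is the concentration that stops growth completely.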 Where a SMILES comes first, the peptide text is derived from it. Square brackets hold non-standard residues; d marks the D form. Peptide text beside a SMILES is read from it. [ ]: non-standard residue; d: D form. The star is where a group is joined. ξ: configuration not given here. Phe(4-NO2) = N[CH](Cc1ccc([N+](=O)[O-])cc1)C(=O)O; ξPhe(4-NO2) = NC(Cc1ccc([N+](=O)[O-])cc1)C(=O)O; Boc = CC(C)(C)OC(=O)*

With `CCN(CCCl)c1cc(CN(C)C)cc(NC(=O)c2ccc(C(=O)Nc3ccccc3)cc2)c1`, the TGI in test [1] is 1.14 µM; in test [2], 6.92 µM; in test [3] it was 2.79 µM; in test [4], 7.55 µM; in test [5] it was 1.78 µM; in test [6], 6.34 µM. Moreover, the TGI stood at 3.14 µM in test [7], 2.26 µM in [8] and 11.1 µM in test [9].
As to `C(#C[C@@]12CCC[C@@H]1N(Cc1ccccc1)CO2)c1ccc2c(c1)OCO2`, the TGI in [1], in test [2], in test [3], in test [4], in test [5] and in test [6] was more than 100 µM each time. Further, the TGI in test [7], in test [8], in [9] and in test [10] was more than 100 µM each time.
Regarding `COC(=O)C1(Cc2ccc(C)cc2)Cc2c(C)cccc2C1=O` (stereo not drawn), the TGI in test [1] is more than 100 µM; in test [2], 72 µM; in [3] it was 28.4 µM; in [4] it was more than 100 µM; in test [5] it was more than 100 µM; in test [6], more than 100 µM. Also, the TGI in test [7] is 40.6 µM; in [8], 34.5 µM; in test [9], more than 100 µM; in test [10], 66.5 µM.
On to `CC1OC(OC2C[C@](O)(C(=O)CBr)Cc3c(O)c4c(c(O)c32)C(=O)c2ccccc2C4=O)C(F)C(O)C1O` (stereo partly drawn), for which the TGI in test [1] was 3.04 µM; in [2] it was 63.2 µM; in test [3] it was more than 100 µM; in test [4], 25.2 µM; in test [6], more than 100 µM; in test [7], 17.7 µM. For the same molecule, the TGI in [8] was 30.4 µM; in [9], more than 100 µM; in test [10], more than 74.7 µM.
Regarding `O=C(c1cccc2cc(O)ccc12)c1cn(CCN2CCOCC2)c2ccccc12`, the TGI is 34.4 µM in [1]; 73 µM in [2]; 66.8 µM in test [3]; 45.3 µM in test [4]; 62.9 µM in test [5]; more than 100 µM in [6]. Also, the TGI in test [7] was 68.8 µM; in test [8], more than 100 µM.
For the molecule `O=c1oc2ccccc2n1CCCn1c(=O)oc2ccccc21`, the TGI in test [1], in test [2], in test [3], in test [4], in test [5] and in [6] was more than 100 µM throughout. In addition, the TGI in [7], in [8], in test [9] and in test [10] was more than 100 µM in each case.
`COc1ncc(C#CC(=O)c2ccccc2)c(OC)n1`: the TGI in test [1] amounted to 2.07 µM; in test [2] it was 19.7 µM; in [3], 1.96 µM; in test [4], 5.49 µM; in test [5] it was 2.38 µM; in test [6] it was 8.72 µM. In addition, the TGI was more than 21.9 µM in [7], 42.1 µM in [9] and 9.59 µM in [10].
Consider `Brc1ccc(C2CC3(c4ccccc4)ON=C(c4ccccc4)N3c3ccccc3S2)cc1` (stereo not drawn), for which the TGI in [1], in test [2], in test [3], in [4], in test [5] and in test [6] was more than 100 µM in each case. For the same molecule, the TGI in test [8], in test [9] and in [10] was more than 100 µM each time.
As to `Fc1cc2nc3n(c2cc1F)C(c1c(Cl)cccc1Cl)SC3` (stereo not drawn), the TGI in test [2] was 32.2 µM; in test [3], 33.1 µM; in test [4], 34.6 µM; in test [5] it was more than 100 µM; in [6], 29.5 µM; in test [7] it was 36.5 µM. The results for the TGI in test [8], in [9] and in test [10] were 37.1 µM, 30.6 µM and 31.4 µM, respectively.
On to `COC1C(OC(C)=O)CC(=O)OC(C)C/C=C/C=C\C(O)C(C)CC(CC=O)C1OC1OC(C)C(OC2CC(C)(O)C(OC(=O)CC(C)C)C(C)O2)C(N(C)C)C1O` (stereo not drawn), for which the TGI in test [1], in [2], in [3], in test [4], in test [6] and in test [7] was more than 100 µM each time. Also, the TGI in test [8], in test [9] and in test [10] was more than 100 µM each time.
Turning to `CC(=O)OCCCCn1cnc2c(Cl)nc(Nc3ccccc3)nc21`, the TGI in [1], in [2], in [3], in test [4], in test [5] and in [6] was more than 100 µM each time. Moreover, the TGI in test [7], in [8] and in [10] was more than 100 µM in each case.
As to `CC(C)C1=CC23CCC4C(C)(C(=O)O)CCCC4(C)C2CC1C1C(=O)N(c2cccc(N4C(=O)C5C6CC7C8(C)CCCC(C)(C(=O)O)C8CCC7(C=C6C(C)C)C5C4=O)c2)C(=O)C13` (stereo not drawn), the TGI in test [1] amounted to 26.2 µM; in [2], 22.7 µM; in test [3], 16 µM; in [4], 39.2 µM; in [5], 40.1 µM; in test [6] it was 22.7 µM. For the same molecule, the TGI in test [8] is 57.7 µM; in test [10], 11 µM.
For `C/C(=N\Nc1nc2ccccc2o1)c1cc2ccccc2cn1`, the TGI in [1] was more than 38.5 µM; in test [2], 39.7 µM; in test [3] it was more than 33.7 µM; in test [4], 8.75 µM; in test [5], more than 46.3 µM; in test [7] it was more than 20.7 µM. Moreover, the values for the TGI in test [9] and in test [10] were 8.15 µM and more than 100 µM, respectively.
Turning to `CCNC(=O)CNC(=O)C(Cc1ccc([N+](=O)[O-])cc1)NC(=O)OC(C)(C)C` (stereo not drawn) (Boc-[ξPhe(4-NO2)]-Gly-NHEt), the TGI in test [1], in [2], in test [3], in [4], in test [5] and in test [6] was more than 100 µM each time. The TGI in [7], in test [9] and in test [10] was more than 100 µM throughout.
With `O=C1CSC(c2cccc(Oc3ccccc3)c2)N1c1cccc(Cl)c1Cl` (stereo not drawn), the TGI was more than 100 µM in test [1]; more than 100 µM in [2]; 32.8 µM in test [3]; more than 100 µM in [4]; 55.7 µM in test [5]; 45.9 µM in test [6]. For the same molecule, the TGI was 58.3 µM in test [8], more than 100 µM in test [9] and 39.1 µM in test [10].
In the case of `COC(=O)CCC(NC(=O)C(CCC(=O)OC)NC(=O)C(CCC(=O)OC)NC(=O)C(CCC(=O)OC)NC(=O)C(CCC(=O)OC)NC(=O)C(Cc1ccc([N+](=O)[O-])cc1)NC(=O)C(CCC(=O)OC)NC(=O)C(CCC(=O)OC)NC(=O)C(CCC(=O)OC)NC(=O)C(CCC(=O)OC)NC(=O)C(CCC(=O)OC)NC(C)=O)C(N)=O` (stereo not drawn) (Ac-E(OMe)E(OMe)E(OMe)E(OMe)E(OMe)[Phe(4-NO2)]E(OMe)E(OMe)E(OMe)E(OMe)E(OMe)-NH2; configuration not given here), the TGI in test [1], in test [2], in [3], in test [4], in [5] and in test [6] was more than 100 µM throughout. Further, the TGI in test [7], in [9] and in test [10] was more than 100 µM throughout.
As to `COc1cc(C(=O)N(C(=S)OC23CC4CC(CC(C4)C2)C3)c2ccccc2)cc(OC)c1OC`, the TGI in test [1] is 36 µM; in test [2], more than 100 µM; in [3], more than 100 µM; in [4], more than 100 µM; in test [5], 21.8 µM; in [6] it was more than 100 µM. Besides, the TGI is more than 100 µM in [8], more than 100 µM in test [9] and 53 µM in test [10].
`O=C(N[C@@H](Cc1ccccc1)B(O)O)[C@H](Cc1cccc2ccccc12)NC(=O)N1CCOCC1`: the TGI in test [1] is 0.0022 µM; in [2], 0.403 µM and 0.527 µM; in [3] it was 0.352 µM; in test [4], 0.00745 µM and 0.0232 µM; in test [5], 0.00366 µM and 0.0107 µM; in test [6], 0.122 µM. Further, the TGI was 0.00414 µM in [7]; 0.000769 µM in [8]; 0.132 µM and 0.174 µM in test [10].
Consider `OC1(C2(c3ccc(Cl)cc3)CCCC2)c2ccccc2C2=NCCN21` (stereo not drawn), for which the TGI in [1] came to 38.5 µM; in [2], 16.3 µM; in test [3], 32.7 µM; in test [4] it was 29.6 µM; in test [5], 32.2 µM; in [6], 32 µM. Also, the TGI was determined as 33.9 µM in test [9] and 28.2 µM in test [10].
In the case of `C=COC(=O)N1C2CCCC(Cl)(C(C)=O)C1CC2` (stereo not drawn), the TGI in test [1], in test [2], in test [3], in [4], in [5] and in test [6] was more than 100 µM in each case. The TGI in test [7], in [9] and in test [10] was more than 100 µM in each case.
In the case of `COc1cc2c3c(c1OC)C(=O)C(=O)C1=C3N(CCC1)CC2`, the TGI in test [1] is 80.4 µM; in test [2], more than 100 µM; in [3] it was 37.2 µM; in [4], more than 100 µM; in [5] it was 56.3 µM; in test [6], more than 100 µM. The TGI was 80.1 µM in test [8] and more than 100 µM in test [10].
Regarding `NS(=O)(=O)c1nnc(NC(=O)/C=C/C(=O)O)s1`, the TGI in test [2], in test [3], in test [4], in test [5], in test [6] and in test [7] was more than 100 µM throughout. For the same molecule, the TGI in test [8], in test [9] and in [10] was more than 100 µM each time.
On to `CCOC1=NC(C(F)(F)F)(C(F)(F)F)N=C(N2CCCCC2)O1`, for which the TGI in [1], in test [2], in [3], in [4], in test [5] and in test [6] was more than 100 µM in each case. The TGI in test [7], in test [8] and in [10] was more than 100 µM throughout.
Regarding `CC1(C)CC[C@]2(C(=O)O)CC[C@]3(C)C(=CC[C@@H]4[C@@]5(C)CC[C@H](OC6OC(CO)C(O)C(O)C6O)C(C)(C)[C@@H]5CC[C@]43C)[C@@H]2C1` (stereo partly drawn), the TGI was 6.36 µM in [1]; 4.49 µM in test [2]; 3.91 µM in test [3]; 3.07 µM in [4]; 4.55 µM in test [5]; 3.12 µM in test [6]. In addition, the TGI in test [7] was found to be 6.08 µM; in [9] it was 3.16 µM; in test [10] it was 3.05 µM.
Consider `CN(C)c1c(C2CC(O)C(CO)O2)c(=O)c1=O` (stereo not drawn), for which the TGI in [2], in [3], in [4], in test [5], in test [6] and in [7] was more than 100 µM each time. The TGI in test [8], in test [9] and in test [10] was more than 100 µM throughout.
Take `CO/N=C(\C(=O)[N-][n+]1cnn(CC(=O)O)c1)c1csc(N)n1`: the TGI in test [1], in [2], in [3], in [4], in test [5] and in test [6] was more than 10 µM in each case. The TGI in [7] and in [9] was more than 10 µM throughout.
With `COc1ccc(NC(=O)CC(=O)N2N=C(C)C(N=Nc3ccc(C(=O)O)cc3)C2=O)cc1` (stereo not drawn), the TGI in [1], in test [2], in [3], in [4], in [6] and in test [8] was more than 100 µM in each case. In [10], this molecule showed a TGI of more than 100 µM.
